Measurements reported in patent US20090099240A1, “METHODS FOR TREATING ENERGY METABOLISM DISORDERS BY INHIBITING FATTY ACID AMIDE HYDROLASE ACTIVITY” (N.V. Organon, priority 2006, published 2009).

Experiments:
[1] = system: APOE*3-Leiden transgenic (E3L) mice; test: Organ and tissue weights in E3L mice on high cholesterol diet
Text: (§1) We assessed the effect of inhibiting FAAH activity on body weight, body fat, triglyceride levels, cholesterol levels in APOE*3-Leiden transgenic (E3L) mice, an animal model of hyperlipidemia. […] See van Vlijmen et al. (1994), J. Clin Invest., 93:1403-1410. Indeed, upon high fat and cholesterol feeding, these mice develop various stages of atherosclerotic lesions depending on plasma total cholesterol levels and resembling those found in humans. See Groot et al. (1996), Arterioscler. Thromb. Vasc. Biol., 16:926-933; Versch ren et al. (2005), Arterioscler. Thromb. Vasc Biol., 25:161-167; and Lutgens et al. (1999), Circulation; 99(2):276-283). Thus, the E3L mouse is a suitable model for the investigation of the efficacy of anti-atherosclerotic drugs.
(§2) E3L mice were fed a high cholesterol (1% w/w) diet (HC diet) for a period of four weeks. Animals were then matched based on their plasma cholesterol levels, and were divided into five groups, each of which was maintained on an HC diet.
(§3) Blood samples were collected at days 0, 14, and 28 of the treatment period. At the end of the treatment period, animals were sacrificed, and various tissues and organs were analyzed. Unless otherwise indicated, values are mean±standard deviation (SD).

[2] = system: APOE*3-Leiden transgenic (E3L) mice; test: Body weight in E3L mice on high cholesterol diet; format: in vivo, mouse
Text: as §1, §2

[3] = system: APOE*3-Leiden transgenic (E3L) mice; test: Food intake per animal per day in E3L mice; format: in vivo, mouse
Text: as §1, §2

[4] = system: APOE*3-Leiden transgenic (E3L) mice; test: Total plasma cholesterol in E3L mice; format: in vivo, mouse
Text: as §1, §2, §3

[5] = system: APOE*3-Leiden transgenic (E3L) mice; test: Plasma lipoprotein profiles (size fractionation of pooled plasma) in E3L mice; format: in vivo, mouse; conditions: day 28, FIG. 1
Protocol: as §2
Lipoprotein profiles were determined in pooled plasma from day 28, as described in Verschuren et al. (2005), Arterioscler. Thromb. Vasc Biol., 25:161-167. An equal amount of plasma per animal was used to prepare a plasma pool for each group. Plasma lipoproteins in each plasma pool were separated by size fractionation. Typically, VLDL, IDL/LDL and HDL lipoproteins are eluted in fractions 4-8, fractions 11-16 and fractions 17-20, respectively.

[6] = system: APOE*3-Leiden transgenic (E3L) mice; test: Total plasma triglyceride levels in E3L mice; format: in vivo, mouse
Text: as §1, §2, §3

[7] = system: APOE*3-Leiden transgenic (E3L) mice; test: Plasma alanine aminotransferase (ALAT) activity in E3L mice; format: in vivo, mouse; conditions: day 28
Protocol: as §2
Levels of plasma alanine aminotransferase (ALAT) were determined on day 28 (table 7). Plasma ALAT is a measure of hepatic stress and increases in plasma ALAT levels are often associated with liver damage. […] Thus, a reduction in plasma ALAT levels is associated with improved liver function.

[8] = system: APOE*3-Leiden transgenic (E3L) mice; test: Oil Red O staining of liver sections (steatosis) in E3L mice; format: in vivo, mouse
Text: as §2
In order to examine cellular stress in the liver due to lipid storage (steatosis), we stained frozen liver tissue sections with Oil Red O a fat-soluble diazo dye used to stain for lipids. Digital photomicrographs of liver cross sections were taken for each individual animal (magnification: 20 fold). […]

[9] = system: APOE*3-Leiden transgenic (E3L) mice; test: Lipid content of liver (TLC) in E3L mice; format: in vivo, mouse
Text: as §2
A reduction of Red Oil O staining in liver generally indicates reduced liver lipid content. We therefore quantified levels of lipids in livers from each animal, as described in Havekes et al. (1987), Biochem. J., 247:739-746; Delsing et al. (2005), J. Cardiovasc. Pharmacol., 45:53-60; and Post et al. (2004), ATVB, 24:768-774. Liver tissue homogenates were prepared. Lipids were extracted, dried under nitrogen, dissolved in chloroform, and spotted onto a channeled 20×20 cm silica gel thin layer chromatography (TLC) plate. Lipids were then separated, TLC plates were warmed up to visualize bands, and bands were quantified using an internal standard as reference.

[10] = system: APOE*3-Leiden transgenic (E3L) mice; test: Plasma leptin ELISA in E3L mice; format: in vivo, mouse
Text: as §2
Accordingly, we quantified plasma leptin levels after a four hour fasting period at treatment time points 0, 14, and 28 days using a mouse-specific leptin ELISA or (kit number MOB00 from R&D Systems, Minneapolis, Minn.) according to the guidelines and protocol specified by the manufacturer.

[11] = system: APOE*3-Leiden transgenic (E3L) mice; test: Plasma adiponectin ELISA in E3L mice; format: in vivo, mouse
Text: as §2
We determined plasma adiponectin levels after a four hour fasting period at 0, 14, 28 days, using a mouse-specific adiponectin/Acrp30 ELISA (kit number MRP300 from R&D Systems, Minneapolis, Minn.).

[12] = system: APOE*3-Leiden transgenic (E3L) mice; test: Plasma ketone body (D-3-hydroxybutyrate) levels in E3L mice; format: in vivo, mouse
Text: as §2
We quantified plasma D-3-hydroxybutyrate (b-HBA; ketone bodies) levels were quantified in plasma samples obtained after a 4-hour fasting period at time points t=0, t=2, and t=4 weeks using kits #2940 (b-HBA reagent set) and #2947 (b-HBA control set)) according to the guidelines and protocol specified by the manufacturer (Instruchemie, Delfzijl, The Netherlands).

CCCCCCCC/C=C\CCCCCCCC(=O)NCCO [OEA, oleoylethanolamide]
Organ and Tissue Weights: Fat (gonadal fat) ([1]; E3L mice, HC diet, end of four-week treatment, mean ± SD): *0.24 ± 0.06 g | Organ and Tissue Weights: Brain ([1]; mouse, in vivo): 0.44 ± 0.02 g | Organ and Tissue Weights: Heart ([1]; mouse, in vivo): 0.14 ± 0.01 g | Organ and Tissue Weights: Liver ([1]; mouse, in vivo): 0.91 ± 0.16 g | Organ and Tissue Weights: Lung ([1]; mouse, in vivo): 0.19 ± 0.02 g | gonadal fat weight, in words ([1]; relative to the oral vehicle group): significantly lower | body weights, in words ([2]; last time point (4 weeks), within group): significantly reduced | Body Weight ([2]; week 0): 22.3 ± 1.3 g | Body Weight ([2]; week 0.5): 22.5 ± 1.0 g | Body Weight ([2]; week 1): 22.6 ± 1.0 g | Body Weight ([2]; week 1.5): 21.8 ± 1.1 g | Body Weight ([2]; week 2): 21.9 ± 1.2 g | Body Weight ([2]; week 2.5): 21.9 ± 1.3 g | Body Weight ([2]; week 3): *21.6 ± 1.1 g | Body Weight ([2]; week 3.5): *21.3 ± 1.2 g | Body Weight ([2]; week 4): *21.4 ± 1.2 g | Food Intake Per Animal Per Day ([3]; interval 0-0.5 weeks): 2.5 ± 0.05 g | Food Intake Per Animal Per Day ([3]; interval 0.5-1.0 weeks): 2.3 ± 0.04 g | Food Intake Per Animal Per Day ([3]; interval 1.0-1.5 weeks): 2.4 ± 0.1 g | Food Intake Per Animal Per Day ([3]; interval 1.5-2.0 weeks): 2.4 ± 0.1 g | Food Intake Per Animal Per Day ([3]; interval 2.0-2.5 weeks): 2.3 ± 0.1 g | Food Intake Per Animal Per Day ([3]; interval 2.5-3.0 weeks): 2.3 ± 0.05 g | Food Intake Per Animal Per Day ([3]; interval 3.0-3.5 weeks): 2.3 ± 0.1 g | Food Intake Per Animal Per Day ([3]; interval 3.5-4.0 weeks): *2.0 ± 0.1 g | Food Intake Per Animal Per Day ([3]; interval run-in): 2.5 ± 0.5 g | food intake, in words ([3]; last time point): slight, but significant, decrease | Total Plasma Cholesterol ([4]; day 0): 13.9 ± 3.4 mM | Total Plasma Cholesterol ([4]; day 14): ^#16.0 ± 2.9 mM | Total Plasma Cholesterol ([4]; day 28): ^#15.8 ± 2.7 mM | total plasma cholesterol levels, in words ([4]; days 14 and 28, relative to respective control group): slightly and significantly increased | IDL/LDL particle size, in words [5]: slight shift toward larger IDL/LDL particles | VLDL fraction of plasma lipoprotein profile, in words [5]: increase | Total Plasma Triglyceride Levels ([6]; day 0): 1.5 ± 0.4 mM | Total Plasma Triglyceride Levels ([6]; day 14): 1.7 ± 0.6 mM | Total Plasma Triglyceride Levels ([6]; day 28): *1.3 ± 0.3 mM | total plasma triglyceride levels, in words ([6]; relative to respective control group): slightly decreased | Plasma Alanine Amino Transferase Activity [7]: *68.6 ± 17.6 U/L | steatotic (Oil Red O) staining in liver, in words ([8]; compared to the control vehicle group): small, but significant reduction | Oil Red O Staining in Liver, Mild-Severe (above 115 relative units) ([8]; end of four-week treatment): *36 ± 5 % of cross-sectional area | Oil Red O Staining in Liver, Severe (above 175 relative units) ([8]; end of four-week treatment): *8 ± 2 % of cross-sectional area | liver cholesterol esters (CE), in words ([9]; compared to the oral vehicle group): significantly increased | Lipid Content of Liver: Cholesterol Esters ([9]; end of four-week treatment): ^#61 ± 7 ^ | Lipid Content of Liver: Free Cholesterol ([9]; end of four-week treatment): 21 ± 2 | Lipid Content of Liver: Triglycerides ([9]; end of four-week treatment): 94 ± 11 | plasma leptin levels, in words ([10]; at 14 days, relative to the oral vehicle control group): lower | Plasma Leptin Levels ([10]; day 0, four hour fasting): 4.7 ± 2.3 ng/mL | Plasma Leptin Levels ([10]; day 14, four hour fasting): ^#7.3 ± 3.1^ ng/ml | Plasma Leptin Levels ([10]; day 28, four hour fasting): 6.1 ± 4.6 ng/mL | Plasma Adiponectin Levels ([11]; day 0, four hour fasting): 12.9 ± 2.8 µg/mL | Plasma Adiponectin Levels ([11]; day 14, four hour fasting): 11.3 ± 3.5 µg/mL | Plasma Adiponectin Levels ([11]; day 28, four hour fasting): 11.4 ± 2 µg/mL | plasma HB levels, in words ([12]; at 28 days, compared to the oral vehicle control group): significantly lower | Plasma Ketone Body (HB) levels ([12]; day 0, 4-hour fasting): 0.79 ± 0.19 mM | Plasma Ketone Body (HB) levels ([12]; day 14, 4-hour fasting): 0.23 ± 0.09 mM | Plasma Ketone Body (HB) levels ([12]; day 28, 4-hour fasting): ^#0.38 ± 0.10^ mM
